This note sets out measurements from patent US10865191B2, “Heterocyclic compounds useful as modulators of TNF alpha” (BRISTOL-MYERS SQUIBB COMPANY, priority 2015, dated 2020).

Chain of TNFα (P01375 77-233 limits assumed): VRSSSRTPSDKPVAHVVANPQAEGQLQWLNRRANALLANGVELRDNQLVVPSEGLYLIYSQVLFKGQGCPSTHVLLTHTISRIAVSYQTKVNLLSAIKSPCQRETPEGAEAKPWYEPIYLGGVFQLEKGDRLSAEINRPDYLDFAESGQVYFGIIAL

The first assay deals with TNFα (Homo sapiens, UniProt P01375). As to the kind of experiment: TNF induced HEK-Blue assay (NF-kB-driven secreted alkaline phosphatase reporter). It is filed as cell-based. Particulars: TNF induced HEK-Blue assay IC50 value, TNFα 0.5 ng/mL, HEK-Blue-CD40L cells, 18 h. The method, boiled down:
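HEK-Blue-CD40L cells (NF-kB-driven SEAP reporter), 20,000/well, added after 30 min pre-incubation of compound (0.004–25 μM final) with TNFα 0.5 ng/mL final at 37 °C; 18 h incubation. SEAP read with QUANTI-Blue at 620 nm; IC50 from 4-parameter logistic fit, normalized to unstimulated and stimulated DMSO controls.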
Regarding `C[C@H](Nc1c(Cl)cnc2cnc(-c3cnc(C(C)(C)O)nc3)cc12)c1ccccc1F` (single isomer, unassigned) [Example 234], the IC50 – broadly, the concentration that gives 50% inhibition – was in the range of 10 to 25 µM.

Staying with this assay, now noted: TNFα 0.5 ng/mL, HEK-Blue-CD40L cells, 18 h; read-out: TNF induced HEK-Blue assay IC50 value.
Take `CC(Nc1c(Cl)cnc2c(Cl)cc(-c3cnn(C)c3)cc12)c1ccccc1F` (racemic) [Example 20, 3,8-dichloro-N-(1-(2-fluorophenyl)ethyl)-6-(1-methyl-1H-pyrazol-4-yl)quinolin-4-amine]: the IC50 lay within 10 to 25 µM.

Turning to `C[C@@H](Nc1c(Cl)cnc2ccccc12)c1cc(CCCO)ccc1F` [Example 464, (R)-3-(3-(1-((3-chloroquinolin-4-yl)amino)ethyl)-4-fluorophenyl)propan-1-ol], the IC50 was 1 to 10 µM.

With `COC(=O)CN1CCN(c2ncc(-c3ccc4ncc(Cl)c(N[C@@H](c5ccccc5F)C(F)F)c4c3)cn2)CC1` [Example 14, (S)-methyl 2-(4-(5-(3-chloro-4-((2,2-difluoro-1-(2-fluorophenyl)ethyl)amino)quinolin-6-yl)pyrimidin-2-yl)piperazin-1-yl)acetate], the 50% inhibitory concentration (IC50) is below 1 µM.

Turning to `Cc1nc2ccc(-c3cnc(C(C)(C)O)nc3)cc2c(N[C@H](C)c2ccccc2F)c1Cl` [Example 441, (R)-2-(5-(3-chloro-4-((1-(2-fluorophenyl)ethyl)amino)-2-methylquinolin-6-yl)pyrimidin-2-yl)propan-2-ol], the half-inhibitory concentration (IC50) is below 1 µM.

For the compound `C[C@@H](Nc1c(Cl)cnc2ccc(-c3ccc(C(=O)NCCCCN)nc3)cc12)c1ccccc1F` [Example 101, (R)—N-(4-aminobutyl)-5-(3-chloro-4-((1-(2-fluorophenyl)ethyl)amino)quinolin-6-yl)picolinamide], the IC50 was in the range of 10 to 25 µM.

Consider `CC(Nc1c(Cl)cnc2cc(F)c(-c3cnc(C(O)CN4CCC(C(=O)O)CC4)nc3)cc12)c1ccccc1F` (single isomer, unassigned) [Example 610, 1-(2-(5-(3-chloro-7-fluoro-4-((1-(2-fluorophenyl)ethyl)amino)quinolin-6-yl)pyrimidin-2-yl)-2-hydroxyethyl) piperidine-4-carboxylic acid], for which the 50% inhibitory concentration (IC50) was below 1 µM.

For the compound `CC(Nc1c(Cl)cnc2ccc(-c3cnc(C(C)(C)O)nc3)cc12)c1cccc(C(F)(F)F)c1` (racemic) [Example 147, 2-(5-(3-chloro-4-((1-(3-(trifluoromethyl)phenyl)ethyl)amino)quinolin-6-yl)pyrimidin-2-yl)propan-2-ol], the IC50 was 1 to 10 µM.

Take `Cc1nc2ccc(-c3cnc(C(C)(C)O)nc3)cc2c(N[C@H](c2cc(C#N)ccc2F)C(F)F)c1Cl` [Example 378, (R)-3-(1-((3-chloro-6-(2-(2-hydroxypropan-2-yl)pyrimidin-5-yl)-2-methylquinolin-4-yl)amino)-2,2-difluoroethyl)-4-fluorobenzonitrile]: the IC50 is 10 to 25 µM.

For the compound `CCC(Nc1c(Cl)cnc2ccc(-c3cnc(N4CCNC(=O)C4)nc3)cc12)c1nc(C(N)=O)ccc1F` (racemic) [Example 23, 6-(1-((3-chloro-6-(2-(3-oxopiperazin-1-yl)pyrimidin-5-yl)quinolin-4-yl)amino)propyl)-5-fluoropicolinamide], the concentration for half-maximal inhibition (IC50) is below 1 µM.

Take `C[C@@H](Nc1c(Cl)cnc2ccc(-c3cnc(C(C)(C)O)nc3)cc12)c1cccc(Br)c1` [Example 319, (R)-2-(5-(4-((1-(3-bromophenyl)ethyl)amino)-3-chloroquinolin-6-yl)pyrimidin-2-yl)propan-2-ol]: the IC50 is below 1 µM.

`Cc1nc2ncccc2c(N[C@H](C)c2cc(-c3cncnc3)ccc2F)c1Cl` [Example 556, (R)-3-chloro-N-(1-(2-fluoro-5-(pyrimidin-5-yl)phenyl)ethyl)-2-methyl-1,8-naphthyridin-4-amine]: the half-inhibitory concentration (IC50) fell in the range of 10 to 25 µM.

Consider `Cc1nc2ccc(-c3cnc(N4CCN(CC(=O)O)CC4)nc3)cc2c(NC(C)c2ccccc2F)c1Cl` (racemic) [Example 309, 2-(4-(5-(3-chloro-4-((1-(2-fluorophenyl)ethyl)amino)-2-methylquinolin-6-yl)pyrimidin-2-yl)piperazin-1-yl)acetic acid], for which the IC50 was below 1 µM.

In the case of `CC1=C(CC(C)Nc2c(Cl)cnc3ccc(-c4cnc(C(C)(C)O)nc4)cc23)CCC1(C)C` (racemic) [Example 134, 2-(5-(3-chloro-4-((1-(2,3,3-trimethylcyclopent-1-en-1-yl)propan-2-yl)amino)quinolin-6-yl)pyrimidin-2-yl) propan-2-ol], the half-inhibitory concentration (IC50) was in the range of 1 to 10 µM.

On to `C[C@@H](Nc1c(Cl)cnc2cc(F)c(-c3cnc(C(C)(C)O)nc3)nc12)c1ccccc1` [Example 193, (R)-2-(5-(7-chloro-3-fluoro-8-((1-phenylethyl)amino)-1,5-naphthyridin-2-yl)pyrimidin-2-yl)propan-2-ol], for which the IC50 was below 1 µM.

Turning to `C[C@@H](Nc1c(Cl)cnc2ccccc12)c1cc(-c2ccc(N(C)C)nc2)ccc1F` [Example 506, (R)-3-chloro-N-(1-(5-(6-(dimethylamino)pyridin-3-yl)-2-fluorophenyl)ethyl) quinolin-4-amine], the IC50 was below 1 µM.

Take `COc1cccc([C@@H](C)Nc2c(Cl)cnc3ccccc23)c1` [Example 462, (R)-3-chloro-N-(1-(3-methoxyphenyl)ethyl)quinolin-4-amine]: the 50% inhibitory concentration (IC50) lay within 10 to 25 µM.

Take `COC(=O)C1CCN(c2ncc(-c3cc4c(N[C@H](C)c5ccccc5F)c(Cl)cnc4cc3F)cn2)C1` (mixture of isomers) [Example 281, methyl 1-(5-(3-chloro-7-fluoro-4-(((R)-1-(2-fluorophenyl)ethyl)amino)quinolin-6-yl)pyrimidin-2-yl)pyrrolidine-3-carboxylate]: the IC50 is below 1 µM.

As to `COc1ncc(-c2ccc(F)c([C@@H](C)Nc3c(Cl)cnc4ccccc34)c2)cn1` [Example 543, (R)-3-chloro-N-(1-(2-fluoro-5-(2-methoxypyrimidin-5-yl)phenyl)ethyl)quinolin-4-amine], the concentration for half-maximal inhibition (IC50) lay in the range of 10 to 25 µM.

Take `COc1ccc(F)c([C@@H](C)Nc2c(Cl)cnc3ccc(-c4cnc(C(C)(C)O)nc4)cc23)c1` [Example 327, (R)-2-(5-(3-chloro-4-((1-(2-fluoro-5-methoxyphenyl)ethyl)amino)quinolin-6-yl)pyrimidin-2-yl)propan-2-ol]: the concentration for half-maximal inhibition (IC50) is below 1 µM.

In the case of `Cc1nc2ccc(-c3cnc(N4CCOCC4)nc3)cc2c(NC(C)c2ccccc2F)c1Cl` (racemic) [Example 311, 3-chloro-N-(1-(2-fluorophenyl)ethyl)-2-methyl-6-(2-morpholinopyrimidin-5-yl)quinolin-4-amine], the IC50 is below 1 µM.

On to `Cc1cncc(-c2ccc(F)c([C@@H](C)Nc3c(Cl)cnc4ccccc34)c2)c1` [Example 507, (R)-3-chloro-N-(1-(2-fluoro-5-(5-methylpyridin-3-yl)phenyl)ethyl)quinolin-4-amine], for which the IC50 is below 1 µM.

With `Cc1nc2ccc(-c3cnc(C(C)(C)O)nc3)cc2c(N[C@H](C)c2cccc(OCC(=O)O)c2)c1Cl` [Example 438, (R)-2-(3-(1-((3-chloro-6-(2-(2-hydroxypropan-2-yl)pyrimidin-5-yl)-2-methylquinolin-4-yl)amino)ethyl)phenoxy)acetic acid], the half-maximal inhibitory concentration (IC50) lay in the range of 1 to 10 µM.

On to `Cc1nc2c(F)cc(-c3cnc(C(C)(C)O)nc3)cc2c(N[C@H](C)c2cc(C#N)ccc2F)c1Cl` [Example 302, (R)-3-(1-((3-chloro-8-fluoro-6-(2-(2-hydroxypropan-2-yl)pyrimidin-5-yl)-2-methylquinolin-4-yl)amino)ethyl)-4-fluorobenzonitrile], for which the half-inhibitory concentration (IC50) was below 1 µM.

For `C[C@@H](Nc1c(Cl)cnc2cc(F)c(-c3cnc(N4CCC(C(C)(C)O)C4)nc3)cc12)c1ccccc1F` (mixture of isomers) [Example 283, 2-(1-(5-(3-chloro-7-fluoro-4-(((R)-1-(2-fluorophenyl)ethyl)amino)quinolin-6-yl)pyrimidin-2-yl)pyrrolidin-3-yl)propan-2-ol], the concentration for half-maximal inhibition (IC50) is below 1 µM.

Turning to `Cc1nc2cc(F)c(-c3cnc(C(C)(C)O)nc3)cc2c(N[C@H](C)c2cc(OCCO)ccc2F)c1Cl` [Example 324, (R)-2-(5-(3-chloro-7-fluoro-4-((1-(2-fluoro-5-(2-hydroxyethoxy)phenyl)ethyl)amino)-2-methylquinolin-6-yl)pyrimidin-2-yl)propan-2-ol], the IC50 was below 1 µM.

With `Cc1nc2ccc(-c3cnc(C(C)(C)O)nc3)cc2c(N[C@H](C)c2ccccc2)c1Cl` [Example 322, (R)-2-(5-(3-chloro-2-methyl-4-((1-phenylethyl)amino)quinolin-6-yl)pyrimidin-2-yl)propan-2-ol], the IC50 was in the range of 10 to 25 µM.

In the case of `C[C@@H](Nc1c(Cl)cnc2ccc(-c3cnc(C4(O)COC4)nc3)cc12)c1ccccc1F` [Example 227, (R)-3-(5-(3-chloro-4-((1-(2-fluorophenyl)ethyl)amino)quinolin-6-yl)pyrimidin-2-yl)oxetan-3-ol], the half-inhibitory concentration (IC50) was below 1 µM.

With `CNC(=O)c1ccc(-c2ccc3nc(C)c(F)c(Nc4cc(C)ccc4C)c3c2)cn1` [Example 186, 5-(4-((2,5-dimethylphenyl)amino)-3-fluoro-2-methylquinolin-6-yl)-N-methylpicolinamide], the IC50 fell in the range of 10 to 25 µM.

With `C[C@@H](Nc1c(Cl)cnc2ccccc12)c1cc(-c2cnn(C)c2)ccc1F` [Example 454, (R)-3-chloro-N-(1-(2-fluoro-5-(1-methyl-1H-pyrazol-4-yl)phenyl)ethyl)quinolin-4-amine], the 50% inhibitory concentration (IC50) is below 1 µM.

As for `CC(C)(O)c1ncc(-c2ccc3ncc(Cl)c(NC(CC(F)(F)F)c4ccccc4F)c3c2)cn1` (racemic) [Example 169, 2-(5-(3-chloro-4-((3,3,3-trifluoro-1-(2-fluorophenyl)propyl)amino)quinolin-6-yl)pyrimidin-2-yl)propan-2-ol], the IC50 is below 1 µM.
